Experimental data: US20220096515A1, “Methods and Formulations for Preventing Neurological or Psychiatric Disorders” (Huntington Medical Research Institutes, priority 2020, published 2022)

Experiments:
[1] = test system: periventricular endothelial cells isolated from E15 wildtype (CD1) forebrain; assay: Tube formation under normal culture conditions (no Matrigel); type: cell-based, mouse; conditions: absence of Matrigel
Procedure: Primary culture of endothelial cells and endothelial cell staining: Embryonic brains were dissected under a stereo-microscope, after the NAD^+ treatment paradigm and the telencephalon was removed. Pial membranes were peeled off. Telencephalon without pial membranes from the periventricular region was pooled. Purity of endothelial cell cultures was established with endothelial cell markers and determined to be one hundred percent. Isolation and culture of endothelial cells were performed according to published methodology. Periventricular endothelial cells were prepared from CD1 (wild type), saline-treated Gabrb3^fl/fl, saline-treated Gabrb3^ECKO, and NAD^+-treated Gabrb3^ECKO embryos. Endothelial cells were labeled with anti-biotinylated isolectinB4 (1:100, Sigma), anti-GABA (1:400, Sigma), anti-DAXX (1:100, Santa Cruz Biotechnology) and anti-P2X4 (1:100, Abclonal) followed by secondary detection with AlexaFluor conjugates (Invitrogen). DAPI (Invitrogen) was used to label nuclei. Images were taken on an FSX100 microscope (Olympus). 1 million cells were examined for each immunohistochemistry condition.
In one experiment, periventricular endothelial cells were isolated from E15 wildtype (CD1) forebrain and tested the effect of NAD^+ addition in vitro. […]

[2] = test system: Gabrb3^ECKO mice; assay: Self-grooming; type: in vivo, mouse; conditions: after prenatal treatment
Procedure: (§1) Behavioral Experiments: Mice were housed in our animal facility with a 12-hour light cycle with ad libitum access to food and water. Offspring stayed with their mothers until weaning at PND 21 after which males and females were separated. Before all behavioral testing, mice were acclimated to the testing room for 1 hour. Behavioral assays were performed according to established protocols referenced here: self-grooming, light-dark box, tail suspension test, Y-maze, open field locomotion activity, three chamber social interaction test and nest building with nestlets and with shredded paper. Both males and females were used for all behavioral assays. Experimenters scoring behaviors were blinded to the genotypes and treatment. Sample sizes for each assay are noted in figure legends.
Therefore, behavioral tests were performed to screen for stress, anxiety, locomotion, cognition, and sociability in saline-treated Gabrb3^fl/fl mice, saline-treated Gabrb3^ECKO mice and NAD^+-treated Gabrb3^ECKO mice. Mice from saline and NAD^+-treated groups were housed individually in cages containing wood chip bedding and two nestlets (pressed cotton) (FIGS. 16A-16D) or more naturalistic material like shredded paper strips (FIGS. 16E-16H). […] This rescue of home cage social behavior was a robust indication of well-being in NAD^+-treated Gabrb3^ECKO mice. […]

[3] = test system: CD1 derived endothelial cells, purified from the periventricular plexus; assay: Long-distance endothelial cell migration assay; type: cell-based, mouse; conditions: vs untreated cells
Procedure: In preparation for long-distance cell migration assays, square culture inserts (ibidi GmbH) were placed at one end of a 35 mm dish. Cultures of CD1 derived endothelial cells, purified from the periventricular plexus, were plated in the insert and allowed to migrate for 24 hours in endothelial cell culture medium. Endothelial cells were labeled with cell trace marker (CellLight Plasma Membrane-RFP, BacMam 2.0, Invitrogen) to visualize endothelial cell morphologies during subsequent imaging. The migration of endothelial cells from one end of the dish to the other spanning a distance of 3.5 cm was imaged and quantified.
In one experiment, periventricular endothelial cells were isolated from E15 wildtype (CD1) forebrain and tested the effect of NAD^+ addition in vitro. Exogenous addition of 100 μM NAD^+ was able to initiate significant endothelial cell proliferation within 2 days of culture and a 35 mm culture dish was confluent within 4-6 days (FIGS. 2A-2D). This was an interesting observation, since untreated periventricular endothelial cells take approximately 12 days to reach confluency in 35mm dishes, in our well-established culture conditions. […] Vital elements of angiogenesis include effective endothelial cell proliferation, migration, sprouting, alignment, tube formation and branching. […]

[4] = test system: Gabrb3^fl/fl mice; assay: Nesting and grooming behavior of NAD+ treated Gabrb3^fl/fl mice; type: in vivo, mouse; conditions: NAD+ vs saline treated Gabrb3^fl/fl mice
Procedure: Certain embodiments treat an individual at a dosage of approximately 10 mg/kg—for example, for a 60-70 kg human, a dosage would be approximately 600-700 mg. Some embodiments treat at a dosage higher than 10 mg/kg, such as up to 40 mg/kg. In many embodiments excess NAD+ may be removed from the body without deleterious effects. FIGS. 1D-1F illustrate exemplary data showing no deleterious effects from treating wildtype mice with NAD+. […] As excess NAD+ may be removed without significant effect to a treated individual, some embodiments treat a person prophylactically.
as §1

[5] = test system: GABAergic neurons isolated at E18 from Gabrb3^ECKO; assay: In vitro neuronal migration assay after in vivo NAD+ treatment paradigm; type: cell-based, mouse; conditions: neurons isolated at E18 after in vivo treatment E12-E17
Procedure: Isolation and primary culture of neuronal cells: Primary culture of embryonic GABAergic neurons from CD1 telencephalon or after the saline or NAD+ treatment paradigms were performed using established methods. Briefly, embryonic brains were extracted under a stereo microscope and placed into cold PBS. After removal of the pial membrane, the telencephalon was dissected from each embryonic brain. The telencephalon was minced into 1-2 mm slices in cold PBS. Minced telencephalon was treated with 0.1× trypsin/EDTA at 37° C. for 5 min. Trypsin treatment was stopped by adding FBS-DMEM media and DNase I consecutively. […]
Neuronal migration assay: In preparation for cell migration assays, one well square culture inserts (ibidi GmbH) were placed in the center of a poly-Ornithine/Laminin coated 35 mm dish, to make a small rectangular patch that is labeled outside the dish. […] Neuronal migration was assessed by measuring the distance between the final positions of cells from the border of the rectangular patch was outlined on the first day, using ImageJ software.
To test if the prenatal NAD^+ treatment was able to influence GABAergic neuronal migration, an in vitro neuronal migration assay was performed (FIG. 6M), after the in vivo NAD^+ treatment paradigm (E12-E17). […] Images of GFP^+ cells that had entered the dorsal telencephalon at E18 were collected and analyzed. […]

NC(=O)c1ccc[n+]([C@@H]2O[C@H](COP(=O)([O-])OP(=O)(O)OC[C@H]3O[C@@H](n4cnc5c(N)ncnc54)[C@H](O)[C@@H]3O)[C@@H](O)[C@H]2O)c1 [NAD^+]
tube formation [1]: started showing tube formation properties under normal culture conditions
severe grooming behavior [2]: ameliorated
long-distance migration of endothelial cells (cell number) [3]: robust long-distance migration
grooming behavior [4]: no significant change in grooming behavior
nesting behavior ([4]; untorn nestlet and shredded paper): no significant difference in nesting behavior
migration of β-Tubulin^+ neurons (cell number and distance) [5]: migrated robustly
